Measured values taken from ChEMBL document CHEMBL3745682, “Pivotal role of glycogen synthase kinase-3: A therapeutic target for Alzheimer's disease” (Eur J Med Chem, 2016).
pIC50: −log10 of the molar value.

How the values were obtained:
[1] = target: T1, Glycogen synthase kinase-3 (Homo sapiens, UniProt P49840+P49841); assay: Competitive inhibition of glycogen synthase kinase-3 (unknown origin) in presence of ATP; assay type: protein assay
[2] = target: T1, Glycogen synthase kinase-3; assay type: protein assay
Description: Inhibition of glycogen synthase kinase-3 (unknown origin)

[3] = target: T2, Glycogen synthase kinase-3 beta (Homo sapiens, UniProt P49841)
T2 sequence (P49841 whole entry): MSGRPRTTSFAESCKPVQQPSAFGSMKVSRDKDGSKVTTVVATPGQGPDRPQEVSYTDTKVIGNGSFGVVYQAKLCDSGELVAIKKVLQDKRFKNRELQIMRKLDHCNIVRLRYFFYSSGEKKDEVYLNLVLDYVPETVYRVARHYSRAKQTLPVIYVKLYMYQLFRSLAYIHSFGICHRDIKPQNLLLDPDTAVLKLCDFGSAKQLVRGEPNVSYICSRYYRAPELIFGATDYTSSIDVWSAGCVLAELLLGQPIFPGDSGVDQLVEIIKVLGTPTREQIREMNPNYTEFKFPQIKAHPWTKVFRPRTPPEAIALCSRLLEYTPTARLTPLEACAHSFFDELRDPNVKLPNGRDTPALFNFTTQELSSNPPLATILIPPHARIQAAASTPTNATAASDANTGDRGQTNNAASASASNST
Description: Competitive inhibition of glycogen synthase kinase-3 beta (unknown origin) using GS-1 as substrate after 30 mins by scintillation counting analysis in presence of [gamma-32P]-ATP

[4] = target: T2, Glycogen synthase kinase-3 beta; assay: Inhibition of glycogen synthase kinase-3 beta (unknown origin) using GS-1 as substrate after 20 mins by scintillation counting analysis in presence of [gamma-32P]-ATP

Structure (SMILES): COc1ccc(CNC(=O)Nc2nc(C)c(C(C)=O)s2)cc1
- IC50 [1]: 400 nM

Structure (SMILES): CC(=O)C1=C(c2cn(C)c3ccccc23)C(=O)NC1=O
- IC50 [2]: 4470 nM

Structure (SMILES): O=C1Nc2ccccc2/C1=C1/Nc2ccccc2C1=O [INDIRUBIN]
- pIC50 [3]: 8.40

Structure (SMILES): Clc1cccc(C2=NC(c3ccccc3)=NN(c3ccccc3)c3ccccc32)c1
- IC50 [2]: 3380 nM

Structure (SMILES): Br.Br.c1ccc(C/N=C2\NC(c3ccccc3)N(c3ccccc3)S2)cc1 (centres undefined)
- IC50 [2]: 1280 nM

Structure (SMILES): O=C(CBr)c1ccc(C2C(=O)c3ccccc3C2=O)cc1
- pIC50 [4]: 4.00

Structure (SMILES): O=S=C(CCl)c1ccc(Cl)cc1
- pIC50 [4]: < 4.00

Structure (SMILES): O=C1Nc2ccccc2/C1=C1/Nc2cc(Br)ccc2C1=O
- pIC50 [3]: 8.40

Structure (SMILES): Br.CCOC(=O)C/N=C1\NC(c2ccccc2)N(c2ccccc2)S1 (centres undefined)
- IC50 [2]: 7050 nM
